System: Crude diglycosidase
Assay: Examination of pH in the conversion into isoflavone aglycons by diglycosidase using soybean materials
Assay type: biochemical, Penicillium multicolor IAM7153
Design: Decomposition efficiency of genistin family in soymilk / Decomposition efficiency of genistin family in defatted soybean / Decomposition efficiency of daidzin family in defatted soybean: concentration or dose not given beside the values
Outline: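 Conversion of glycosides to isoflavone aglycons was followed by HPLC after crude diglycosidase (1.88 AU/mL enzyme solution) acted at 55° C for up to 6 h on four soy materials, 50 mg each, held at pH 2–11.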

## O=c1c(-c2ccc(O)cc2)coc2cc(O)cc(O)c12 [genistein]
pH2.6, heat treatment of enzyme: no, reaction time 1 h
  Decomposition efficiency of genistin family in defatted soybean: 17.7%
pH2.6, heat treatment of enzyme: no, reaction time 3 h
  Decomposition efficiency of genistin family in defatted soybean: 32.7%
pH2.6, heat treatment of enzyme: no, reaction time 6 h
  Decomposition efficiency of genistin family in defatted soybean: 34.6%
pH3.4, heat treatment of enzyme: no, reaction time 1 h
  Decomposition efficiency of genistin family in defatted soybean: 56.9%
pH3.4, heat treatment of enzyme: no, reaction time 3 h
  Decomposition efficiency of genistin family in defatted soybean: 62.5%
pH3.4, heat treatment of enzyme: no, reaction time 6 h
  Decomposition efficiency of genistin family in defatted soybean: 68.8%
pH3.4, heat treatment of enzyme: yes, reaction time 6 h
  Decomposition efficiency of genistin family in defatted soybean: 14.1%
pH4.8, heat treatment of enzyme: no, reaction time 0 h
  Decomposition efficiency of genistin family in defatted soybean: 14.5%
pH4.8, heat treatment of enzyme: no, reaction time 1 h
  Decomposition efficiency of genistin family in defatted soybean: 56.1%
pH4.8, heat treatment of enzyme: no, reaction time 3 h
  Decomposition efficiency of genistin family in defatted soybean: 61.9%
pH4.8, heat treatment of enzyme: no, reaction time 6 h
  Decomposition efficiency of genistin family in defatted soybean: 68.5%
pH4.8, heat treatment of enzyme: yes, reaction time 6 h
  Decomposition efficiency of genistin family in defatted soybean: 25.2%
pH5.4, heat treatment of enzyme: no, reaction time 0 h
  Decomposition efficiency of genistin family in defatted soybean: 14.5%
pH5.4, heat treatment of enzyme: no, reaction time 1 h
  Decomposition efficiency of genistin family in defatted soybean: 51.5%
pH5.4, heat treatment of enzyme: no, reaction time 3 h
  Decomposition efficiency of genistin family in defatted soybean: 55.4%
pH5.4, heat treatment of enzyme: no, reaction time 6 h
  Decomposition efficiency of genistin family in defatted soybean: 60.3%
pH5.4, heat treatment of enzyme: yes, reaction time 6 h
  Decomposition efficiency of genistin family in defatted soybean: 48.0%
pH6.6, heat treatment of enzyme: no, reaction time 1 h
  Decomposition efficiency of genistin family in defatted soybean: 49.3%
pH6.6, heat treatment of enzyme: no, reaction time 3 h
  Decomposition efficiency of genistin family in defatted soybean: 51.4%
pH6.6, heat treatment of enzyme: no, reaction time 6 h
  Decomposition efficiency of genistin family in defatted soybean: 53.7%
pH6.6, heat treatment of enzyme: yes, reaction time 6 h
  Decomposition efficiency of genistin family in defatted soybean: 46.4%
pH7.8, heat treatment of enzyme: no, reaction time 1 h
  Decomposition efficiency of genistin family in defatted soybean: 36.7%
pH7.8, heat treatment of enzyme: no, reaction time 3 h
  Decomposition efficiency of genistin family in defatted soybean: 42.5%
pH7.8, heat treatment of enzyme: no, reaction time 6 h
  Decomposition efficiency of genistin family in defatted soybean: 45.7%
pH7.8, heat treatment of enzyme: yes, reaction time 6 h
  Decomposition efficiency of genistin family in defatted soybean: 22.0%

Reference: patent US7118895B2, “Process for producing aglycon by using diglycosidase and flavor-improved food containing the aglycon and converting agent to be used in the process” (Amano Enzyme Inc., priority 2000, dated 2006)
